Measured values reported in PMC7242566, “The Three Lipocalins of Egg-White: Only Ex-FABP Inhibits Siderophore-Dependent Iron Sequestration by Salmonella Enteritidis” (Frontiers in Microbiology, 2020).
Where “and” joins values, the source holds several entries; their conditions need not be identical. Equal values may be shown once. Read-outs that look alike come from different tables or passages of the source.

Key:
LCN2 [1] = biological target: T1, LCN2 (Homo sapiens, UniProt P80188); assay: Isothermal titration calorimetry, siderophore binding to LCN2; details: ITC; for Kd / n (binding stoichiometry) / ΔH (enthalpy) / ΔS (entropy): TBS pH 7.4, 30°C; for Kd: 5 μM lipocalin
T1 construct: made in house; host or cells: E. coli K-12 BW25113 ΔentB::kan (JW0587) (λDE3), pET21a
T1 sequence (P80188 with tags, fused parts or gaps): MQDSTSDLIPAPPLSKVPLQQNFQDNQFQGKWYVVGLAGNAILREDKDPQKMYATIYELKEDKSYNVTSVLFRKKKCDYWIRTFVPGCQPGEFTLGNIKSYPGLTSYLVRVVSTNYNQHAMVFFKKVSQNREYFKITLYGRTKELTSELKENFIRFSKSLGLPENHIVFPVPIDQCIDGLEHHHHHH
Experimental: (§1) Experiments were carried out with a GE Healthcare Microcal VP-ITC microcalorimeter according to the manufacturer’s guidelines (Operating Instructions 28-9639-79 AA). The device consisted of a motorized injection syringe, in which the ligand was loaded, with two adiabatic cells set at 30 °C. The left cell was filled with the reference (TBS with 1.3% DMSO), whereas the right cell was filled with 5 μM lipocalin protein dissolved in the same buffer. […] Samples were degassed and pre-equilibrated at the desired temperature using a GE MicroCal ThermoVac degassing station before loading into the syringe, sample cell and reference cell.

Ex-FABP [2] = biological target: T2, Ex-FABP (Gallus gallus, UniProt P21760); assay: biochemical; type: binding, chicken
T2 construct: made in house; host or cells: E. coli K-12 BW25113 ΔentB::kan (JW0587) (λDE3), pET21a, periplasmic secretion
T2 sequence (P21760 21-178): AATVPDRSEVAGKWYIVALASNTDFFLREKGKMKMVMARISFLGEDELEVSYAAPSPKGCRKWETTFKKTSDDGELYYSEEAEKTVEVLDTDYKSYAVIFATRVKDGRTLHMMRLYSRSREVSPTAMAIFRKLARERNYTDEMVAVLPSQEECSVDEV
Experimental: as §1

Cal-γ = assay: Isothermal titration calorimetry, siderophore binding to Cal-γ; parameters: species or system chicken; details: ITC, TBS pH 7.4, 30°C, 5 μM lipocalin
Experimental: as §1
(§2) FIGURE 2 Interactions between lipocalins and SE siderophores. […] Data for LCN2, Fe-Ent are shown in the Supplementary Figure S2.

α-1-ovoglycoprotein = assay: Isothermal titration calorimetry, siderophore binding to α-1-ovoglycoprotein; parameters: species or system chicken; details: ITC, TBS pH 7.4, 30°C, 5 μM recombinant non-glycosylated lipocalin
Experimental: as §1, §2

Ex-FABP [3] = biological target: T2, Ex-FABP; details: TQF, ref Correnti et al., 2011, cited from earlier work; for Kd: pH 7.4
LCN2 [4] = biological target: T1, LCN2; details: cited from earlier work; for Kd: TQF
[5] = parameters: method as in Chart and Rowe, 1993; details: ref Chart and Rowe, 1993; cited from earlier work
LCN2 [6] = biological target: T1, LCN2; parameters: method as in Li et al., 2015; details: ITC, earlier report; ref Li et al., 2015; cited from earlier work

In the case of salmochelin [apo-Sal (or DGE)], the Kd (LCN2 [1]) is reported as “No binding was observed”, the Kd (Ex-FABP [2]; ITC, TBS pH 7.4, 30°C, 5 μM lipocalin) is reported as “No interactions could be measured” and the Kd (Ex-FABP [2]; ITC, TBS pH 7.4, 30°C, 5 μM lipocalin, listed as apoDGE) is reported as “failed to interact”. For the same compound, the Kd (Cal-γ) was “Under threshold”, the Kd (Cal-γ; listed as apoDGE) was “neither Cal-γ nor α-1-ovoglycoprotein bind” and the Kd (Cal-γ; listed as salmochelin) was “No interactions could be measured”. The Kd (α-1-ovoglycoprotein) was “Under threshold”, the Kd (α-1-ovoglycoprotein; listed as apoDGE) was “neither Cal-γ nor α-1-ovoglycoprotein bind” and the Kd (α-1-ovoglycoprotein; listed as salmochelin) was “No interactions could be measured”. For the same compound, the Kd (Ex-FABP [3]) was “Under threshold”.

For `O=C(N[C@H]1COC(=O)[C@@H](NC(=O)c2cccc(O)c2O)COC(=O)[C@@H](NC(=O)c2cccc(O)c2O)COC1=O)c1cccc(O)c1O` [apo-Ent, enterobactin], the “n (binding stoichiometry)” value (LCN2 [1]) was 0.872, the “ΔH (enthalpy)” value (LCN2 [1]) was -27.8 kcal/mol and the “ΔS (entropy)” value (LCN2 [1]) was −58.9 cal/mol, K. For the same compound, the Kd (LCN2 [1]; Kd) was 58 nM and 58.4 nM, the Kd (Ex-FABP [2]) was 86.2 ± 14.6 nM and the “n (binding stoichiometry)” value (Ex-FABP [2]; ITC, TBS pH 7.4, 30°C) was 0.617. For the same compound, the “ΔH (enthalpy)” value (Ex-FABP [2]; ITC, TBS pH 7.4, 30°C) was -28.3 kcal/mol, the “ΔS (entropy)” value (Ex-FABP [2]; ITC, TBS pH 7.4, 30°C) was −60.9 cal/mol, K and the Kd (Cal-γ) was “Under threshold”. The Kd (Cal-γ; listed as apoEnt) was “neither Cal-γ nor α-1-ovoglycoprotein bind”, the Kd (Cal-γ; listed as enterobactin) was “No interactions could be measured” and the Kd (α-1-ovoglycoprotein) was “Under threshold”. For the same compound, the Kd (α-1-ovoglycoprotein; listed as apoEnt) was “neither Cal-γ nor α-1-ovoglycoprotein bind”, the Kd (α-1-ovoglycoprotein; listed as enterobactin) was “No interactions could be measured” and the Kd (LCN2 [4]; ref Abergel et al., 2006) was 3.57 nM. The Kd (Ex-FABP [3]; read-out: Kd) was 0.5 ± 0.15 nM and the “binding/affinity constant for Fe^3+ (ferric ion)” value [5] was 10^52 M^−1.

With `O=C(N[C@H]1COC(=O)[C@@H](NC(=O)c2cccc([O-])c2[O-])COC(=O)[C@@H](NC(=O)c2cccc([O-])c2[O-])COC1=O)c1cccc([O-])c1[O-].[Fe+3]` [Fe^3+-Ent] the “fold higher affinity for Fe^3+-Ent than apoEnt” value (from here on “fold higher affinity”) (LCN2 [1]) was 4.9 fold, the “n (binding stoichiometry)” value (LCN2 [1]) was 0.863 and the “ΔH (enthalpy)” value (LCN2 [1]) was -26.2 kcal/mol. For the same compound, the “ΔS (entropy)” value (LCN2 [1]) was −50.2 cal/mol, K, the Kd (LCN2 [1]; read-out: Kd) was 11.8 ± 8.8 nM and the “fold higher affinity” value (Ex-FABP [2]; ITC) was 16 fold. For the same compound, the “n (binding stoichiometry)” value (Ex-FABP [2]; ITC, TBS pH 7.4, 30°C) was 0.672, the “ΔH (enthalpy)” value (Ex-FABP [2]; ITC, TBS pH 7.4, 30°C) was -19.4 kcal/mol and the “ΔS (entropy)” value (Ex-FABP [2]; ITC, TBS pH 7.4, 30°C) was −26.1 cal/mol, K. The Kd (Ex-FABP [2]; ITC, TBS pH 7.4, 30°C, 5 μM lipocalin, read-out: Kd) was 5.3 ± 3.8 nM, the Kd (LCN2 [6]) was 240 nM and the Kd (LCN2 [4]; ref Fischbach et al., 2006) was 0.43 nM. For the same compound, the Kd (LCN2 [4]; ref Goetz et al., 2002) was 0.41 nM, the “fold higher affinity” value (LCN2 [4]; ref Abergel et al., 2006) was 8.7 fold and the Kd (Ex-FABP [3]; read-out: Kd) was 0.22 ± 0.06 nM. For the same compound, the “fold higher affinity” value (Ex-FABP [3]) was 2.3 fold.
